Test results from patent publication US20230373989A1, “N-PHENYLAMINOCARBONYL PYRIDINO-, PYRIMIDINO AND BENZO-TROPANES AS MODULATORS OF GPR65” (PATHIOS THERAPEUTICS LIMITED, priority 2020, published 2023).

Each compound was assayed against T1, human recombinant GPR65 (Homo sapiens, UniProt Q8IYL9) (assay: Human GPR65 cAMP HTRF antagonist assay). Details: not given.
T1 construct: host or cells: 1321N1 human astrocytoma cells (1321N1-hrGPR65)
Assay type: cell-based
From the text: In one preferred embodiment, the compound prevents the increase in cytoplasmic cAMP levels expected following GPR65 activation at acidic pH. This prevention of cAMP accumulation in turn prevents downstream signalling through ICER, as described above. The “Human GPR65 cyclic adenosine monophosphate (cAMP) Homogeneous Time Resolved Fluorescence (HTRF) antagonist assay”, or simply “cAMP assay”, as described in the accompanying examples, can be used to measure the potency of GPR65 modulators, which is expressed as the concentration of compound required to reduce the increase in cAMP concentration upon GPR65 activation by 50% (i.e. an IC50).
Human GPR65 Cyclic Adenosine Monophosphate (cAMP) Homogeneous Time Resolved Fluorescence (HTRF) Antagonist Assay Procedure
IC50 data was obtained by the following procedure:
1321N1 human astrocytoma cells stably expressing human recombinant GPR65 (1321N1-hrGPR65 cells, EuroscreenFast) were cultured according to the vendor's instructions.
Compounds were tested for their ability to antagonise GPR65, through measuring the concentration of cytoplasmic cAMP following treatment of the cells at a pH of 7.2 to activate GPR65 signalling and addition of the compound to be tested. The extent to which the expected rise in cAMP concentration upon GPR65 activation was suppressed by the added compound is indicative of its potency. The assay was carried out according to EuroscreenFast assay methodology as follows.
On the day of the assay, test compounds were added to 384-well, low volume, white microtiter plates by acoustic dispensing. KRH buffer (5 mM KCl, 1.25 mM MgSO4, 124 mM NaCl, 25 mM HEPES, 13.3 mM Glucose, 1.25 mM KH2PO4 and 1.45 mM CaCl2) was adjusted to pH 6.5, pH 7.6 and pH 8.4 by adding NaOH. 1321N1-hGPR65 cells were rapidly thawed and diluted in KRH, pH 7.6 prior to centrifugation at 300×g for 5 min and resuspension in assay buffer (KRH, pH 7.6, supplemented with 1 mM 3-isobutyl-1-methylxanthine (IBMX) and 200 μM ethylenediaminetetraacetic acid (EDTA)). Cells were added to assay plates at a density of 2,000 cells per well in a volume of 5 μl. Assay plates were briefly centrifuged at 100×g and then incubated at room temperature for 30 min. Cells were stimulated by the addition of 5 μL KRH, pH 6.5, to achieve an assay pH of 7.2, while control wells received 5 μl KRH, pH 8.4 to achieve an assay pH of 7.9. Assay plates were briefly centrifuged at 100×g and then incubated at room temperature for 30 min.
Accumulation of cAMP was detected by cAMP HTRF kit (Cisbio). d2-labeled cAMP and cryptate-labeled anti-cAMP antibody in Lysis and Detection Buffer (Cisbio) were added to assay plates, and the plates were incubated at room temperature for 1 h. HTRF measurements were performed using a Pherastar FSX instrument. Acceptor and donor emission signals were measured at 665 nm and 620 nm, respectively, and HTRF ratios were calculated as signal665 nm/signal620 nm×104. Data were normalised to high and low control values and fitted with 4-parameter logistic regression to determine hGPR65 IC50 values for the test compounds, which are shown in Table 1.

T1 sequence (Q8IYL9 whole entry): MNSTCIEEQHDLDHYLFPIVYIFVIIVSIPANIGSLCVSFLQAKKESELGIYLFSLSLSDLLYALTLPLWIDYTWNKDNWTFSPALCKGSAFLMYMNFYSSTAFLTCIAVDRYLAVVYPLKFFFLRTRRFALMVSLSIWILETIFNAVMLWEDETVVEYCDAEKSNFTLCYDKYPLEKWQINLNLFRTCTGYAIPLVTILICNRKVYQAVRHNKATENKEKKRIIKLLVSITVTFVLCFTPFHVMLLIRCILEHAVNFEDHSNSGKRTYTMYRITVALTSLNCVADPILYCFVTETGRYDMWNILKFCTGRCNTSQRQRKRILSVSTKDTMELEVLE

Structure (SMILES) | IC50 [nM]
O=C(Nc1ccc(C(F)(F)F)c(Cl)c1)N1C2CCC1c1ccc(F)cc1C2 (racemic) [Compound 75, (±)-N-(3-Chloro-4-(trifluoromethyl)phenyl)-2-fluoro-6,7,8,9-tetrahydro-5H-5,8-epiminobenzo[7]annulene-10-carboxamide] | < 500
O=C(Nc1ccc(Cl)c(Cl)c1)N1C2CCC1c1c[nH]c(=O)cc1C2 (racemic) [Compound 76, (±)-N-(3,4-Dichlorophenyl)-3-oxo-3,5,6,7,8,9-hexahydro-2H-6,9-epiminocyclohepta[c]pyridine-10-carboxamide] | < 500
O=C(Nc1ccc(Cl)c(Cl)c1)N1C2CCC1c1ccnc(Cl)c1C2 (racemic) [Compound 77, (±)-1-Chloro-N-(3,4-dichlorophenyl)-6,7,8,9-tetrahydro-5H-5,8-epiminocyclohepta[c]pyridine-10-carboxamide] | < 500
O=C(Nc1ccc(Cl)c(Cl)c1)N1C2CCC1c1ccnc(F)c1C2 (racemic) [Compound 109, (±)-N-(3,4-Dichlorophenyl)-1-fluoro-6,7,8,9-tetrahydro-5H-5,8-epiminocyclohepta[c]pyridine-10-carboxamide] | < 500
O=C(Nc1cc(Cl)c(C(F)(F)F)cc1F)N1C2CCC1c1c[nH]c(=O)c(F)c1C2 (racemic) [Compound 138, (±)-N-(5-Chloro-2-fluoro-4-(trifluoromethyl)phenyl)-4-fluoro-3-oxo-3,5,6,7,8,9-hexahydro-2H-6,9-epiminocyclohepta[c]pyridine-10-carboxamide] | < 500
O=C(Nc1cc(Cl)c(Cl)cc1F)N1C2CCC1c1c[nH]c(=O)c(F)c1C2 (racemic) [Compound 139, (±)-N-(4,5-Dichloro-2-fluorophenyl)-4-fluoro-3-oxo-3,5,6,7,8,9-hexahydro-2H-6,9-epiminocycloheptan[c]pyridine-10-carboxamide] | < 500
O=C(Nc1cccc(C(F)(F)F)c1)N1C2CCC1c1ccnc(F)c1C2 (racemic) [Compound 156, (±)-1-Fluoro-N-(3-(trifluoromethyl)phenyl)-6,7,8,9-tetrahydro-5H-5,8-epiminocyclohepta[c]pyridine-10-carboxamide] | < 500

Same assay, conditions: 1321N1-hrGPR65 cells, assay pH 7.2, cAMP HTRF; read-out: hGPR65 IC50 (activity class)

Structure (SMILES) | IC50 [nM]
O=C(Nc1ccc(Cl)c(Cl)c1)N1C2CCC1c1cc(F)ccc1C2 (racemic) [Compound 80, (±)-N-(3,4-Dichlorophenyl)-3-fluoro-6,7,8,9-tetrahydro-5H-5,8-epiminobenzo[7]annulene-10-carboxamide] | 500 to 5000
O=C(Nc1ccc(C(F)(F)F)c(Cl)c1)N1C2CCC1c1cc(F)ccc1C2 (racemic) [Compound 81, (±)-N-(3-Chloro-4-(trifluoromethyl)phenyl)-3-fluoro-6,7,8,9-tetrahydro-5H-5,8-epiminobenzo[7]annulene-10-carboxamide] | 500 to 5000
CC(C)(C)OC(=O)Nc1nccc2c1C1CCC(C2)N1C(=O)Nc1ccc(Cl)c(Cl)c1 (racemic) [Compound 82, tert-butyl ((±)-10-((3,4-dichlorophenyl)carbamoyl)-6,7,8,9-tetrahydro-5H-6,9-epiminocyclohepta[c]pyridin-1-yl)carbamate] | 500 to 5000
O=C(Nc1ccc(Cl)c(Cl)c1)N1C2CCC1c1cccc(F)c1C2 (racemic) [Compound 83, (±)-N-(3,4-Dichlorophenyl)-1-fluoro-6,7,8,9-tetrahydro-5H-5,8-epiminobenzo[7]annulene-10-carboxamide] | 500 to 5000
O=C(Nc1ccc(C(F)(F)F)c(Cl)c1)N1C2CCC1c1cccc(F)c1C2 (racemic) [Compound 84, (±)-N-(3-Chloro-4-(trifluoromethyl)phenyl)-1-fluoro-6,7,8,9-tetrahydro-5H-5,8-epiminobenzo[7]annulene-10-carboxamide] | 500 to 5000
O=C(Nc1ccc(Cl)c(Cl)c1)N1C2CCC1c1cccnc1C2 (racemic) [Compound 87, (±)-N-(3,4-Dichlorophenyl)-6,7,8,9-tetrahydro-5H-5,8-epiminocyclohepta[b]pyridine-10-carboxamide] | > 5000
O=C(Nc1ccc(Cl)c(Cl)c1)N1C2CCC1c1cncc(F)c1C2 (racemic) [Compound 95, (±)-N-(3,4-Dichlorophenyl)-4-fluoro-6,7,8,9-tetrahydro-5H-6.9-epiminocyclohepta[c]pyridine-10-carboxamide] | 500 to 5000
O=C(Nc1ccc(Cl)c(Cl)c1)N1C2CCC1c1cnc(Br)cc1C2 (racemic) [Compound 99, (±)-3-Bromo-N-(3,4-dichlorophenyl)-6,7,8,9-tetrahydro-5H-6,9-epiminocyclohepta[c]pyridine-10-carboxamide] | > 5000
O=C(Nc1ccc(Cl)c(Cl)c1)N1C2CCC1c1cnc(Cl)cc1C2 (racemic) [Compound 100, (±)-3-Chloro-N-(3,4-dichlorophenyl)-6,7,8,9-tetrahydro-5H-6,9-epiminocyclohepta[c]pyridine-10-carboxamide] | 500 to 5000
O=C(Nc1ccc(Cl)c(Cl)c1)N1C2CCC1c1cnccc1C2 (racemic) [Compound 104, (±)-N-(3,4-Dichlorophenyl)-6,7,8,9-tetrahydro-5H-6,9-epiminocyclohepta[c]pyridine-10-carboxamide] | 500 to 5000
O=C(Nc1ccc(Cl)c(Cl)c1)N1C2CCC1C(F)c1ncncc12 (racemic) [Compound 113, Cis-(±)-N-(3,4-Dichlorophenyl)-9-fluoro-6,7,8,9-tetrahydro-5H-5,8-epiminocyclohepta[d]pyrimidine-10-carboxamide] | 500 to 5000
O=C(Nc1ccc(Cl)c(Cl)c1)N1C2CCC1C(F)c1ncncc12 (racemic) [Compound 114, trans-(±)-N-(3,4-Dichlorophenyl)-9-fluoro-6,7,8,9-tetrahydro-5H-5,8-epiminocyclohepta[d]pyrimidine-10-carboxamide] | 500 to 5000
O=C(Nc1ccc(Cl)c(Cl)c1)N1C2CCC1c1cnc(F)c(F)c1C2 (racemic) [Compound 135, (±)-N-(3,4-Dichlorophenyl)-3,4-difluoro-6,7,8,9-tetrahydro-5H-6,9-epiminocyclohepta[c]pyridine-10-carboxamide] | 500 to 5000
O=C(Nc1cc(Cl)c(C(F)(F)F)cc1F)N1C2CCC1c1cnc(F)c(F)c1C2 (racemic) [Compound 136, (±)-N-(5-Chloro-2-fluoro-4-(trifluoromethyl)phenyl)-3,4-difluoro-6,7,8,9-tetrahydro-5H-6,9-epiminocyclohepta[c]pyridine-10-carboxamide] | 500 to 5000
O=C(Nc1cc(Cl)c(Cl)cc1F)N1C2CCC1c1cnc(F)c(F)c1C2 (racemic) [Compound 137, (±)-N-(4,5-Dichloro-2-fluorophenyl)-3,4-difluoro-6,7,8,9-tetrahydro-5H-6,9-epiminocyclohepta[c]pyridine-10-carboxamide] | 500 to 5000
O=C(Nc1ccc(Cl)c(Cl)c1)N1C2CCC1c1ccnc(Br)c1C2 (racemic) [Compound 148, (±)-1-Bromo-N-(3,4-dichlorophenyl)-6,7,8,9-tetrahydro-5H-5,8-epiminocyclohepta[c]pyridine-10-carboxamide] | 500 to 5000
COc1cc(NC(=O)N2C3CCC2c2ccnc(F)c2C3)ccc1-c1cnco1 (racemic) [Compound 152, (±)-1-Fluoro-N-(3-methoxy-4-(oxazol-5-yl)phenyl)-6,7,8,9-tetrahydro-5H-5,8-epiminocyclohepta[c]pyridine-10-carboxamide] | 500 to 5000
O=C(Nc1ccc(F)c(Cl)c1F)N1C2CCC1c1ccnc(F)c1C2 (racemic) [Compound 154, (±)-N-(3-Chloro-2,4-difluorophenyl)-1-fluoro-6,7,8,9-tetrahydro-5H-5,8-epiminocyclohepta[c]pyridine-10-carboxamide] | 500 to 5000
O=C(Nc1cccc(F)c1)N1C2CCC1c1ccnc(F)c1C2 (racemic) [Compound 155, (±)-1-Fluoro-N-(3-fluorophenyl)-6,7,8,9-tetrahydro-5H-5,8-epiminocyclohepta[c]pyridine-10-carboxamide] | 500 to 5000
